SMILES strings stand for the structures. Where a name gives a salt, the structure may show the parent alone.

The test system of this test is rabbits (New Zealand White). The test can be described thus: Ocular hypotensive effect in rabbits. The class given is in vivo, rabbit. The following applies: male New Zealand White rabbits, 0.04 mL eye drop, concentration of 1% (w/v) or lower, maximum ocular hypotensive rate vs vehicle-treated contralateral eye. As for the experimental part:
The compound of the present invention was administered to rabbits (New Zealand White, sex: male, 3 to 6 per group) and evaluated for its ocular hypotensive effect.
Each test compound was dissolved in a vehicle 1 (1.04 g of sodium dihydrogen phosphate dihydrate and 0.5 g of sodium chloride dissolved in purified water and then adjusted to pH 7.0 with sodium hydroxide to make the total amount to 100 mL) or a vehicle 2 (2% (w/v) aqueous boric acid solution) to prepare a test compound solution with a predetermined concentration.
The intraocular pressures of the rabbits were measured using Tiolat TonoVet handheld tonometer immediately before administration of test compound. The test compound solution and the vehicle were dropped at a volume of 0.04 mL to one eye and the contralateral eye, respectively, and the intraocular pressures were measured over time in the same way as above. The rate of the intraocular pressure of the eye receiving the test compound solution to that of the eye receiving the vehicle was calculated as an ocular hypotensive rate.
Take `C[C@H](CNC1Cc2ccccc2C1)NS(=O)(=O)c1ccc2cnccc2c1.Cl` [Example 62, (R)—N-{1-(2,3-dihydro-1H-inden-2-ylamino)propan-2-yl}isoquinoline-6-sulfonamide hydrochloride]: the Ocular hypotensive activity entry is “++ (maximum ocular hypotensive rate of 15% or more)”.
The result for `C[C@@H](CNCCc1c[nH]c2ccccc12)NS(=O)(=O)c1ccc2cnccc2c1.Cl` [Example 37, (S)—N-[1-{2-(1H-indol-3-yl)ethylamino}propan-2-yl]isoquinoline-6-sulfonamide hydrochloride] reads “++ (maximum ocular hypotensive rate of 15% or more)”.
Under `N[C@H](CNS(=O)(=O)c1ccc2cnccc2c1)Cc1ccccc1` [Example 116, (S)—N-(2-amino-3-phenylpropyl)isoquinoline-6-sulfonamide dihydrochloride] stands “+ (maximum ocular hypotensive rate of 5% or more and less than 15%)”; under `C[C@H](CNCCc1ccccc1Cl)NS(=O)(=O)c1ccc2cnccc2c1` [Example 38, (R)—N-{1-(2-chlorophenethylamino)propan-2-yl}isoquinoline-6-sulfonamide dihydrochloride], “++ (maximum ocular hypotensive rate of 15% or more)”; under `CCCNCC[C@@H](C)NS(=O)(=O)c1ccc2cnccc2c1` [Example 12, (R)—N-{4-(propylamino)butan-2-yl}isoquinoline-6-sulfonamide dihydrochloride], “++ (maximum ocular hypotensive rate of 15% or more)”.
The result for `C[C@H](CN(C)CCc1ccccc1)NS(=O)(=O)c1ccc2cnccc2c1` [Example 99, (R)—N-[1-{methyl(phenethyl)amino}propan-2-yl]isoquinoline-6-sulfonamide dihydrochloride] reads “++ (maximum ocular hypotensive rate of 15% or more)”; that for `C[C@H](CNC1CC1)NS(=O)(=O)c1ccc2cnccc2c1` [Example 15, (R)—N-{1-(cyclopropylamino)propan-2-yl}isoquinoline-6-sulfonamide dihydrochloride], “++ (maximum ocular hypotensive rate of 15% or more)”.
`CC=CCNC[C@@H](C)NS(=O)(=O)c1ccc2cnccc2c1` [Example 7, (R)—N-{1-(but-2-enylamino)propan-2-yl}isoquinoline-6-sulfonamide dihydrochloride]: the Ocular hypotensive activity entry is “++ (maximum ocular hypotensive rate of 15% or more)”.
The result for `C[C@H](CNCCc1ccccn1)NS(=O)(=O)c1ccc2cnccc2c1.Cl` [Example 81, (R)—N-[1-{2-(pyridin-2-yl)ethylamino}propan-2-yl]isoquinoline-6-sulfonamide hydrochloride] reads “++ (maximum ocular hypotensive rate of 15% or more)”.
Under `CO[C@H](CNC[C@@H](C)NS(=O)(=O)c1ccc2cnccc2c1)c1ccccc1.Cl` [Example 48, N—[(R)-1-{(S)-2-methoxy-2-phenylethylamino}propan-2-yl]isoquinoline-6-sulfonamide hydrochloride] stands “++ (maximum ocular hypotensive rate of 15% or more)”; under `C[C@H](CNCCc1ccc(N(C)C)cc1)NS(=O)(=O)c1ccc2cnccc2c1.Cl` [Example 71, (R)—N-{1-(4-dimethylaminophenethylamino)propan-2-yl}isoquinoline-6-sulfonamide hydrochloride], “++ (maximum ocular hypotensive rate of 15% or more)”.
With `C[C@H](CNCCc1c[nH]c2ccc(Cl)cc12)NS(=O)(=O)c1ccc2cnccc2c1.Cl` [Example 63, (R)—N-[1-{2-(5-chloro-1H-indol-3-yl)ethylamino}propan-2-yl]isoquinoline-6-sulfonamide hydrochloride], the Ocular hypotensive activity entry is “+ (maximum ocular hypotensive rate of 5% or more and less than 15%)”.
Take `Cc1cncc2ccc(S(=O)(=O)N[C@H](C)CNCCc3ccccc3)cc12.Cl` [Example 112, (R)—N-{1-(phenethylamino)propan-2-yl}-4-methyl-isoquinoline-6-sulfonamide hydrochloride]: the Ocular hypotensive activity result was “++ (maximum ocular hypotensive rate of 15% or more)”.

The values are drawn from US8883792B2, “Substituted isoquinoline derivative” (D. Western Therapeutics Institute, Inc., priority 2010, dated 2014).
